Results: US20250177383A1, “DI-CYCLOPROPYL BASED IL-17A MODULATORS AND USES THEREOF” (DICE ALPHA, INC., priority 2022, published 2025)

Columns and labels:
IL-17A/A = target: T1, IL-17A/A (Homo sapiens, UniProt Q16552); assay: IL-17A/A HEK-Blue Cell Assay; type: cell-based; details: HEK-Blue IL-17 reporter cells, IL-17A/A stimulation, 20 hours, SEAP readout; read-out: IL17 AA HEK-5 pIC50 (converted)
T1 sequence (Q16552 24-155): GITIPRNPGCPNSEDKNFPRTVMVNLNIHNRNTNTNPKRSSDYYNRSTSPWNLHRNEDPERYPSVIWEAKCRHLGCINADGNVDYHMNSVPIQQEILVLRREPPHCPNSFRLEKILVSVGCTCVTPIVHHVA
Summary of the method: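 Cells co-expressing IL-17RA, IL-17RC and Act1 received titrated compound, top final 10 uM in 0.1% DMSO, immediately before IL-17A/A stimulation.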

[1] = Microsomal stability, rat liver microsomes; type: in vitro ADME; details: SD rat liver microsomes 0.5 mg protein/mL, 1 μM test compound, NADPH, 37° C., 60 min; read-out: RLM Clint
Protocol: (§1) Test compound and control working solution preparation. 5 μL of a compound and control stock solution (10 mM in dimethyl sulfoxide (DMSO)) were diluted with 495 μL of acetonitrile (ACN).
(§2) NADPH cofactor preparation. The appropriate amount of NADPH powder was weighed and diluted into a 10 mM MgCl2 solution (working solution concentration: 10 mM; final concentration in reaction system: 1 mM). Materials: NADPH powder: β-Nicotinamide adenine dinucleotide phosphate reduced form, tetrasodium salt; NADPHA4Na (Vendor: Chem-Impex International, Cat. No. 00616).
(§3) Liver Microsome Preparation. The appropriate concentrations of microsome working solutions were prepared in 100 mM potassium phosphate buffer. Materials: Human Liver Microsomes (HLM) Cat No. 452117 and Lot No. 38295 (Corning); SD Rat Liver Microsomes (RLM) Cat No. R1000 and Lot No. 1910100 (Xenotech).
(§4) Stop solution preparation. Cold (4° C.) acetonitrile (ACN) containing 200 ng/mL tolbutamide and 200 ng/mL labetalol as internal standards (IS) were used as the stop solution.
(§5) Assay Procedure. Empty incubation plates (T60 and NCF60) were warmed for 10 mins prior to use. Liver microsomes were diluted to 0.56 mg/mL in 100 mM phosphate buffer. 445 uL microsome working solutions (0.56 mg/mL) were transferred into pre-warmed ‘Incubation’ plates T60 and NCF60, Then ‘Incubation’ plates T60 and NCF60 were pre-incubated for 10 min at 37° C. with constant shaking. 54 μL liver microsomes were transferred to the blank plate, then 6 μL NAPDH cofactor were added to the blank plate, followed by the addition 180 μL quenching solution to the blank plate. 5 μL compound working solution (100 μM) were added into ‘incubation’ plates (T60 and NCF60) containing microsomes and mixed thoroughly 3 times. To the NCF60 plate 50 μL of buffer were added and mixed 3 times thoroughly. Start timing; plate was incubated at 37° C. for 60 min while shaking. In ‘Quenching’ plate TO, were added 180 μL quenching solution and 6 μL NAPDH cofactor. Plate is chilled to prevent evaporation. The T60 plate, was mixed 3 times thoroughly, and immediately 54 μL of the mixture was removed for the 0-min time point to ‘Quenching’ plate. Then 44 μL NAPDH cofactor was added to the incubation plate (T60). Start timing; plate was incubated at 37° C. for 60 min while shaking. Final concentrations of each component in the incubation media: Microsome (0.5 mg protein/mL); Test compound (1 μM); control compound ([…]); ACN (0.99%); and DMSO (0.01%). At 5, 15, 30, 45, and 60 min, 180 μL quenching solution was added to ‘Quenching’ plates, mixed once, and serially transferred 60 μL of sample from T60 plate per time point to ‘Quenching’ plates. For the NCF60 plate, mix once and 60 μL of sample was transferred from the NCF60 incubation to ‘Quenching’ plate containing quenching solution at the 60-min time point (Start time 1:00:00 and End Time 0:00:00).
(§6) All sampling plates were shaken for 10 min, then centrifuged at 4000 rpm for 20 minutes at 4° C. 80 μL of supernatant were transferred into 240 μL HPLC water, and mixed by plate shaker for 10 min. Each bioanalysis plate was sealed and shaken for 10 minutes prior to LC-MS/MS analysis.

[2] = Microsomal stability, human liver microsomes; type: in vitro ADME; details: human liver microsomes 0.5 mg protein/mL, 1 μM test compound, NADPH, 37° C., 60 min; read-out: HLM Clint
Protocol: as §1, §2, §3, §4, §5, §6

IL-17A/F = target: T2, IL-17A/F (Homo sapiens, UniProt Q16552+Q96PD4); assay: IL-17A/F HEK-Blue Cell Assay; type: cell-based; details: HEK-Blue IL-17 reporter cells, IL-17A/F stimulation, 20 hours, SEAP readout; read-out: IL17AF HEK Blue pIC50 (converted)
T2 sequence (Q16552 24-155): T1 sequence (Q16552 24-155)
T2 sequence (Q96PD4 31-163): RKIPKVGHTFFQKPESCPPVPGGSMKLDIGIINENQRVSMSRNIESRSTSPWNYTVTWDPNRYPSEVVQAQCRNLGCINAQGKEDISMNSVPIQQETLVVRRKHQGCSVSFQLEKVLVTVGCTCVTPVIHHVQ

Rat pharmacokinetics, PO = type: in vivo; details: male rat, PO 5 mg/kg oral gavage, plasma, Linear/log trapezoidal; read-out: Rat PO AUC0-t
Protocol: Formulations for PO. An appropriate amount of the test article is weighed and mixed with the appropriate volume of vehicle to get a clear solution or a uniform suspension, vortexing or sonication in water bath may used. Animals are dosed within four hours after the formulation is prepared.
Formulation samples are removed from each of the formulation solutions or suspensions, transferred into 1.5 mL of polypropylene microcentrifuge tubes and run dose validated by LC/UV or LC-MS/MS.
Dose administration. For PO dosing, the dose formulation is administered via oral gavage.
Blood Collection. Each blood collection (about 0.2 mL per time point) is performed from carotid artery cannula (CAC) of each animal into a pre-chilled commercial EDTA-K2 tubes as anti-coagulant, then placed on wet ice until centrifugation. Blood samples are processed for plasma by centrifugation at approximately 4° C., 3,200 g for 10 min. Plasma is collected respectively and a certain amount of plasma from rat is transferred into pre-labeled 96 well plate or polypropylene tubes, quick frozen over dry ice and kept at −60° C. or lower until LC-MS/MS analysis. After terminal collection, all plasmas are stored at approximately −80° C. freezer until final analysis.
Plasma concentration versus time data are plotted in graph and analyzed by non-compartmental approaches using the Phoenix WinNonlin 6.3 software program. Trapezoids: Before TMax (Linear); After Tmax (Log). Partial Area Interpolations: Before TMax (Linear); After Tmax (Log).

IC50 (IL-17A/A) [nM] | microsomal CLint at 1 μM [1] [µL/min/mg] | microsomal CLint at 1 μM [2] [µL/min/mg] | IC50 (IL-17A/F) [nM] | AUC(0-t) (Rat pharmacokinetics, PO) [ng·h/mL] | Structure (SMILES)
< 10 | < 9.6 | < 50 | 10 to 100 | > 1000 | CCn1nccc1C(=O)N[C@H](C(=O)Nc1ccc([C@H](C)[C@@H](NC(=O)COC)C(=O)N2CCN(C)C(CF)C2)cc1F)C(C1CC1)C1CC1 (single isomer, unassigned) [Compound 298]
< 10 | 9.6 to 20 | 50 to 150 | – | < 500 | CCc1nonc1C(=O)N[C@H](C(=O)Nc1ccc([C@H](C)[C@@H](NC(C)=O)C(=O)N2CCN(C)[C@H](C)C2)cc1F)C(C1CC1)C1CC1 [Compound 214]
10 to 100 | < 9.6 | < 50 | 100 to 10000 | > 1000 | CCC(=O)N[C@@H](C(=O)N1CCN(C)[C@H](C)C1)[C@@H](C)c1ccc(NC(=O)[C@@H](NC(=O)C2(F)CC2)C(C2CC2)C2CC2)c(F)c1 [Compound 245]
< 10 | < 9.6 | 50 to 150 | 10 to 100 | 500 to 1000 | CCC(=O)N[C@@H](C(=O)N1CCN(C)[C@@H](C)C1)[C@@H](C)c1ccc(NC(=O)[C@@H](NC(=O)c2ccnn2CC)C(C2CC2)C2CC2)c(F)c1 [Compound 213]
< 10 | < 9.6 | 50 to 150 | – | 500 to 1000 | CCC(=O)N[C@@H](C(=O)N1CCN(C)CC1)[C@@H](C)c1ccc(NC(=O)[C@@H](NC(=O)c2ccnn2C(C)C)C(C2CC2)C2CC2)c(F)c1 [Compound 257]
< 10 | < 9.6 | 50 to 150 | 10 to 100 | > 1000 | CCn1nccc1C(=O)N[C@H](C(=O)Nc1ccc([C@H](C)[C@@H](NC(=O)COC)C(=O)N2CCN(C)[C@H](C)C2)cc1F)C(C1CC1)C1CC1 [Compound 207]
< 10 | 9.6 to 20 | < 50 | 10 to 100 | 500 to 1000 | CCC(=O)N[C@@H](C(=O)N1C[C@@H](C)N(C)C[C@H]1C)[C@@H](C)c1ccc(NC(=O)[C@@H](NC(=O)c2ccnn2CC)C(C2CC2)C2CC2)c(F)c1 [Compound 212]
< 10 | 9.6 to 20 | 50 to 150 | – | < 500 | CCC(=O)N[C@@H](C(=O)N1C[C@@H](C)N(C)[C@@H](C)C1)[C@@H](C)c1ccc(NC(=O)[C@@H](NC(=O)c2ccnn2CC)C(C2CC2)C2CC2)c(F)c1 [Compound 223]
< 10 | < 9.6 | < 50 | – | < 500 | CCC(=O)N[C@@H](C(=O)N1CCN(C)[C@H](C)C1)[C@@H](C)c1ccc(NC(=O)[C@@H](NC(=O)c2ccnn2CCF)C(C2CC2)C2CC2)c(F)c1 [Compound 217]
– | 9.6 to 20 | 50 to 150 | – | < 500 | CCC(=O)N[C@@H](C(=O)N1CCN(C)[C@H](C)C1)[C@@H](C)c1ccc(NC(=O)[C@@H](NC(=O)C2(F)CC2)[C@H]2CC[C@H](C)CC2)c(F)c1 [H, reference compound]
< 10 | > 20 | 50 to 150 | – | < 500 | CCn1nccc1C(=O)N[C@H](C(=O)Nc1ccc([C@H](C)[C@@H](NC(=O)N(C)C2CC2)C(=O)N2CCN(C)CC2)cc1F)C(C1CC1)C1CC1 [Compound 225]
< 10 | < 9.6 | < 50 | – | < 500 | CCC(=O)N[C@@H](C(=O)N1CCN(C)[C@H](C)C1)[C@@H](C)c1ccc(NC(=O)[C@@H](NC(=O)c2ccnn2CC(F)F)C(C2CC2)C2CC2)c(F)c1 [Compound 232]
10 to 100 | < 9.6 | 50 to 150 | 10 to 100 | > 1000 | CCn1nccc1C(=O)N[C@H](C(=O)Nc1ccc([C@H](C)[C@@H](NC(=O)COC)C(=O)N2CCN(C)CC2)cc1F)C(C1CC1)C1CC1 [Compound 215]
< 10 | < 9.6 | 50 to 150 | 10 to 100 | 500 to 1000 | CCC(=O)N[C@@H](C(=O)N1CCN(C)[C@H](C)C1)[C@@H](C)c1ccc(NC(=O)[C@@H](NC(=O)c2ccnn2CC)C(C2CC2)C2CC2)c(F)c1 [Compound 209]
